Test results: patent US20090300848A1, “EPOXIDE-BASED TANNAGE SYSTEM” (BLC LEATHER TECHNOLOGY CENTRE LTD, priority 2006, published 2009)
≈ marks a conversion by molar mass, not a printed value.

Assay: solubility in aqueous phase
Assay type: physicochemical
Conditions: water, 25° C.
Description: By having an aromatic-like, heterocyclic triazine nucleus, it is believed to impart a network structure into the protein during tanning, giving better thermal stability.

O=c1n(CC2CO2)c(=O)n(CC2CO2)c(=O)n1CC1CO1 (stereo not shown) [TGIC, trigycidyl isocyanurate]
solubility: 10000 µg/mL (≈ 33.6 mM)
